This is an account of results in patent US12054487B2, “Muscarinic acetylcholine M1 receptor antagonists” (Contineum Therapeutics, Inc., priority 2018, dated 2024).

What all share (assay type): cell-based
The target of one experiment is T1, human M1 receptor (Homo sapiens, UniProt P11229).
T1 construct: host or cells: CHO-K1
T1 sequence (P11229 1-460): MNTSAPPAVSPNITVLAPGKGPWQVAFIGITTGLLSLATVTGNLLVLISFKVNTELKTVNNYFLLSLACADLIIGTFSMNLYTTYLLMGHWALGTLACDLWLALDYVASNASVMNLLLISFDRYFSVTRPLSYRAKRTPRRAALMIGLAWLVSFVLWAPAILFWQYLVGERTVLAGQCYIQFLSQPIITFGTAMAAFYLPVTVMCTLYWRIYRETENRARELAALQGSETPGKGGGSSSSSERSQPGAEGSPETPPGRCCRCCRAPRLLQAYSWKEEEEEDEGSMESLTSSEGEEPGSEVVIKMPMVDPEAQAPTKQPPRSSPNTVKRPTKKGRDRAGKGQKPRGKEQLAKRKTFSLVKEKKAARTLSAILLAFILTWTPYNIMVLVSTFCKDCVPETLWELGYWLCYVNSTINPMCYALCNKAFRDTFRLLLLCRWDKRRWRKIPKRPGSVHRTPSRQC
The experiment can be described thus: In vitro functional assay of muscarinic acetylcholine receptor activity (aequorin calcium flux, antagonist mode vs EC80 acetylcholine), M1. The following applies: CHO-K1 cells stably expressing human M1 receptor with Aequorin; decrease in EC80 acetylcholine response. The protocol: (§1) CHO-K1 cells stably expressing human M1 receptor with Aequorin (Perkin Elmer) were grown in F12 media, 10% FBS with 0.4 mg/mL geneticin and […]. Cells were grown to confluence and frozen down to be assayed at a later date. On the day of the experiment cells were thawed in a 37° C. water bath, resuspended in DMEM/HAM's F12 with HEPES (Invitrogen)+0.1% protease-free BSA (assay buffer), and spun down to remove freezing media. After centrifugation, supernatant was removed and 12 mL of assay buffer was added. Coelenterazine h (Promega) was added to the cells at a final concentration of 5 uM and incubated for 4 hours at room temperature in the dark. Compound master plate-96 deep well (Corning) were formatted in a 8-point DRC in assay buffer with 0.2% DMSO at a starting concentration of 60 uM (2×). After 4 hours of incubation, cells were plated at a concentration of 5×10^5 cells/well in 96 well white-walled, tissue culture-treated, clear-bottom plates (VWR). Compounds were added to the daughter plate, and cells plus compound were incubated at room temperature for 30 minutes in the dark.
(§2) Calcium flux was measured using the FlexStation 3 (Molecular Devices). To measure the antagonist dose-response, the EC80 of Acetylcholine was injected to the daughter plate using the automated compound transfer function of the Flex Station, and the increase in luminescence was measured over time. Antagonist activity was analyzed as a concentration dependent decrease in the EC80 acetylcholine response. Dose response curves were generated using Prism (GraphPad Software). The IC50 of the compounds was calculated from the dose response curve.

In the next experiment the target is T2, M2 (Homo sapiens, UniProt P08172).
T2 sequence (P08172 1-466): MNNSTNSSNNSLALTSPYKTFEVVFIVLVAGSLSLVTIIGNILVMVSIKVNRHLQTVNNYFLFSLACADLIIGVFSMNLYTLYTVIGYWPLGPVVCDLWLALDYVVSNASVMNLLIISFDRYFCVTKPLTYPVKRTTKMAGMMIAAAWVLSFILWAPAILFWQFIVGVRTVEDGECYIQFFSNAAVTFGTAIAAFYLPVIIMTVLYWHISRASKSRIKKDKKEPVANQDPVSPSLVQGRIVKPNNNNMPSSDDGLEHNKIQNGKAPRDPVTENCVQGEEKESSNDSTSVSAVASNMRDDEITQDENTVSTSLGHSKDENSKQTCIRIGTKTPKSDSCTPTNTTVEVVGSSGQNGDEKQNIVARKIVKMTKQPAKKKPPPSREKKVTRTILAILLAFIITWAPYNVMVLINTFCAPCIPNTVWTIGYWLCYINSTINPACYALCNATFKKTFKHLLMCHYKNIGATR
The experiment can be described thus: In vitro functional assay of muscarinic acetylcholine receptor activity, M2. The following applies: antagonist activity; M2 method not separately described. As for the experimental part: [The procedure below names another target; the source lists this target under the same test.] as §1, §2

Another experiment deals with M3 (Homo sapiens, UniProt P20309). The experiment can be described thus: In vitro functional assay of muscarinic acetylcholine receptor activity, M3. The following applies: antagonist activity; M3 method not separately described. The protocol:
[The procedure below names another target; the source lists this target under the same test.] as §1, §2

M3, sequence (P20309 whole entry): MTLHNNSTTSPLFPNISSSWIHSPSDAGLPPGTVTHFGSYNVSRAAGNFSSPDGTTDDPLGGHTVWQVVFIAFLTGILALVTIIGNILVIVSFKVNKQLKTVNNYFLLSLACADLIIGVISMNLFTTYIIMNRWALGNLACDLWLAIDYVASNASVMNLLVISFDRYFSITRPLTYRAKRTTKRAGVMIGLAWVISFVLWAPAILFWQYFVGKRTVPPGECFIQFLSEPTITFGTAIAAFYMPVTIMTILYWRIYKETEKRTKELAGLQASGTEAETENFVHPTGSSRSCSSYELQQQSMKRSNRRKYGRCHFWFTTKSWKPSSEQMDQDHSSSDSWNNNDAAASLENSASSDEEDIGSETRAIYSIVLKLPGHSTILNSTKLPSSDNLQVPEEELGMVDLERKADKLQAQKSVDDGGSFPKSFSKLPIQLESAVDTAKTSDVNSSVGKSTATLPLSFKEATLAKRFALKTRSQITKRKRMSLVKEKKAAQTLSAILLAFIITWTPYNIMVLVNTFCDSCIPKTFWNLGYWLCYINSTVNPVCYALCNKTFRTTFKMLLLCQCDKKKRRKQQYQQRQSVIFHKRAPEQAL

Turning to `O=C1[C@@H](CCCc2cccn3ncnc23)C[C@H]2CN(c3ncccn3)CCN12` [Example 66, (7S,8aS)-7-(3-([1,2,4]triazolo[1,5-a]pyridin-8-yl)propyl)-2-(pyrimidin-2-yl)hexahydropyrrolo[1,2-a]pyrazin-6(2H)-one], the figures for the IC50 at human M1 receptor, against M2 and at M3 were 100 to 1000 nM, more than 10000 nM and more than 10000 nM, respectively.
As for `N#Cc1ccc(N2CCN3C(=O)[C@@H](CCCc4cccc5c4CCC5)C[C@H]3C2)nc1` [Example 18, 6-((7S,8aS)-7-(3-(2,3-dihydro-1H-inden-4-yl)propyl)-6-oxohexahydropyrrolo[1,2-a]pyrazin-2(1H)-yl)nicotinonitrile], the values for the IC50 at human M1 receptor, against M2 and at M3 were 1000 to 10000 nM, 1000 to 10000 nM and more than 10000 nM, respectively.
Consider `N#Cc1ccc(N2CCN3C(=O)[C@@H](CCCc4cccc5nncn45)C[C@H]3C2)nc1` [Example 16, 6-((7S,8aS)-7-(3-([1,2,4]triazolo[4,3-a]pyridin-5-yl)propyl)-6-oxohexahydropyrrolo[1,2-a]pyrazin-2(1H)-yl)nicotinonitrile], for which the concentration for half-maximal inhibition (IC50) at human M1 receptor, against M2 and against M3 was 100 to 1000 nM in each case.
Consider `O=C1C(CCCc2c(F)ccc3nccn23)C[C@H]2CN(c3ccc(F)cn3)CCN12` (stereo partly drawn) [Example 89, (8aS)-7-(3-(6-fluoroimidazo[1,2-a]pyridin-5-yl)propyl)-2-(5-fluoropyridin-2-yl)hexahydropyrrolo[1,2-a]pyrazin-6(2H)-one], for which the IC50 (as a rule, the midpoint of a concentration-inhibition curve) was less than 100 nM on human M1 receptor, 1000 to 10000 nM at M2 and 1000 to 10000 nM against M3.
Turning to `O=C1[C@@H](CCCc2cccc3ncsc23)C[C@H]2CN(c3ccncc3F)CCN12` [Example 2, (7S,8a5)-7-(3-(benzo [d]thiazol-7-yl)propyl)-2-(3-fluoropyridin-4-yl)hexahydropyrrolo[1,2-a]pyrazin-6(2H)-one], the IC50 is less than 100 nM on human M1 receptor, 1000 to 10000 nM at M2 and 1000 to 10000 nM against M3.
With `O=C1[C@H](CCCc2cccc3ncsc23)C[C@H]2CN(c3ccncc3F)CCN12` [Example 1, (7R,8aS)-7-(3-(benzo[d]thiazol-7-yl)propyl)-2-(3-fluoropyridin-4-yl)hexahydropyrrolo[1,2-a]pyrazin-6(2H)-one], the IC50 on human M1 receptor, against M2 and at M3 was more than 10000 nM in each case.
`O=C1[C@@H](CCCc2cccc3ncnn23)C[C@H]2CN(c3ccc(Cl)cn3)CCN12` [Example 34, (7S,8aS)-7-(3-([1,2,4]triazolo[1,5-a]pyridin-5-yl)propyl)-2-(5-chloropyridin-2-yl)hexahydropyrrolo[1,2-a]pyrazin-6(2H)-one]: the IC50 at human M1 receptor is less than 100 nM; against M2 it was 1000 to 10000 nM; at M3, 1000 to 10000 nM.
`N#Cc1ccc(N2CCN3C(=O)[C@@H](CCCc4cccn5nccc45)C[C@H]3C2)nc1` [Example 58, 6-((7S,8aS)-6-oxo-7-(3-(pyrazolo[1,5-a]pyridin-4-yl)propyl)hexahydropyrrolo[1,2-a]pyrazin-2(1H)-yl)nicotinonitrile]: the IC50 at human M1 receptor was less than 100 nM; at M2 it was 100 to 1000 nM; at M3, 100 to 1000 nM.
With `O=C1[C@@H](CCCc2c(F)ccn3ncnc23)C[C@H]2CN(c3ccc(F)cn3)CCN12` [Example 78, (7S,8aS)-7-(3-{7-fluoro-[1,2,4]triazolo[1,5-a]pyridin-8-yl}propyl)-2-(5-fluoropyridin-2-yl)-octahydropyrrolo[1,2-a]pyrazin-6-one], the values for the IC50 on human M1 receptor, against M2 and at M3 were less than 100 nM, 1000 to 10000 nM and 1000 to 10000 nM, respectively.
On to `N#Cc1ccc(N2CCN3C(=O)[C@@H](CCCc4cccnn4)C[C@H]3C2)nc1` [Example 56, 6-((7S,8aS)-6-oxo-7-(3-(pyridazin-3-yl)propyl)hexahydropyrrolo[1,2-a]pyrazin-2(1H)-yl)nicotinonitrile], for which the values for the IC50 at human M1 receptor, against M2 and at M3 were less than 100 nM, 100 to 1000 nM and 100 to 1000 nM, respectively.
Consider `N#Cc1cc(N2CCN3C(=O)[C@@H](CCCc4cccc5ncsc45)C[C@H]3C2)ccn1` [Example 11, 4-((7S,8aS)-7-(3-(benzo[d]thiazol-7-yl)propyl)-6-oxohexahydropyrrolo[1,2-a]pyrazin-2(1H)-yl)picolinonitrile], for which the IC50 at human M1 receptor was less than 100 nM; at M2 it was 100 to 1000 nM; at M3, 100 to 1000 nM.
For `Cc1nccnc1CCC[C@H]1C[C@H]2CN(c3ccc(C#N)cn3)CCN2C1=O` [Example 57, 6-((7S,8aS)-7-(3-(3-methylpyrazin-2-yl)propyl)-6-oxohexahydropyrrolo[1,2-a]pyrazin-2(1H)-yl)nicotinonitrile], the concentration for half-maximal inhibition (IC50) on human M1 receptor was 1000 to 10000 nM; on M2, 1000 to 10000 nM; on M3 it was more than 10000 nM.
For the compound `N#Cc1ccc(N2CCN3C(=O)[C@@H](CCCc4cccn5ncnc45)C[C@H]3C2)cn1` [Example 67, 5-((7S,8aS)-7-(3-([1,2,4]triazolo[1,5-a]pyridin-8-yl)propyl)-6-oxohexahydropyrrolo[1,2-a]pyrazin-2(1H)-yl)picolinonitrile], the concentration for half-maximal inhibition (IC50) on human M1 receptor was less than 100 nM; against M2, 100 to 1000 nM; at M3, less than 100 nM.
On to `O=C1[C@@H](CCCc2cccn3ncnc23)C[C@H]2CN(c3ccc(F)cn3)CCN12` [Example 62, (7S,8aS)-2-(5-fluoropyridin-2-yl)-7-(3-{[1,2,4]triazolo[1,5-a]pyridin-8-yl}propyl)-octahydropyrrolo[1,2-a]pyrazin-6-one], for which the IC50 was less than 100 nM on human M1 receptor, 1000 to 10000 nM on M2 and 1000 to 10000 nM on M3.
Take `O=C1[C@@H](CCCc2cccc3ncsc23)C[C@H]2CN(c3cccnc3)CCN12` [Example 26, (7S,8aS)-7-(3-(benzo[d]thiazol-7-yl)propyl)-2-(pyridin-3-yl)hexahydropyrrolo[1,2-a]pyrazin-6(2H)-one]: the IC50 at human M1 receptor is 100 to 1000 nM; on M2 it was more than 10000 nM; at M3 it was 1000 to 10000 nM.
In the same order, the values of `O=C1[C@@H](CCCc2cccc3ncnn23)C[C@H]2CN(c3ccc(C4CC4)cn3)CCN12` [Example 45, (8aS)-7-(3-([1,2,4]triazolo[1,5-a]pyridin-5-yl)propyl)-2-(5-cyclopropylpyridin-2-yl)hexahydropyrrolo[1,2-a]pyrazin-6(2H)-one] are less than 100 nM, less than 100 nM and 100 to 1000 nM.
In the same order, the values of `N#Cc1ccc(N2CCN3C(=O)[C@@H](CCCc4cccc5cncn45)C[C@H]3C2)nc1` [Example 14, 6-((7S,8aS)-7-(3-(imidazo[1,5-a]pyridin-5-yl)propyl)-6-oxohexahydropyrrolo[1,2-a]pyrazin-2(1H)-yl)nicotinonitrile] are 100 to 1000 nM, 1000 to 10000 nM and 1000 to 10000 nM.
For `N#Cc1ccc(N2CCN3C(=O)[C@@H](CCCc4cccn5ccnc45)C[C@H]3C2)nc1` [Example 15], the results for the IC50 at human M1 receptor, against M2 and on M3 were 100 to 1000 nM, more than 10000 nM and 1000 to 10000 nM, respectively.
On the same counts, the results for `O=C1[C@@H](CCCc2cccn3nccc23)C[C@H]2CN(c3ccc(F)cn3)CCN12` [Example 87, (7S,8aS)-2-(5-fluoropyridin-2-yl)-7-(3-(pyrazolo[1,5-a]pyridin-4-yl)propyl)hexahydropyrrolo[1,2-a]pyrazin-6(2H)-one] are 100 to 1000 nM, 1000 to 10000 nM and 1000 to 10000 nM.
Consider `O=C1C(CCCc2cccc3ncnn23)C[C@H]2CN(c3ccc(F)cn3)CCN12` (single isomer, unassigned) [Example 50], for which the figures for the 50% inhibitory concentration (IC50) on human M1 receptor, on M2 and against M3 were 100 to 1000 nM, more than 10000 nM and more than 10000 nM, respectively.
